{"source": "patent US20260232644A1", "about": "“Compositions Comprising an Inhibitor of Galectin-3” (University of Liverpool, priority 2023, published 2026)", "test_system": "triple-negative breast cancer MDA-MB-231 cells", "experiment": "Triple-negative breast cancer cell adhesion to basement matrix", "type": "cell-based, human", "conditions": "Homo sapiens, MDA-MB-231", "protocol": "Nanty-six well plates were coated with 50 μl Matrigel (1:30 diluted in PBS) at 37° C. for 1 hour.\nCancer cells, pre-labelled with fluorescent die DiI at 37° C. for 20 minutes, were washed twice with PBS and resuspended into 3×10^4 cells/ml in serum-free medium. The matrix-coated 96-well plates were washed twice with PBS before introduction of 100μ cell suspension with different concentrations of the inhibitors or PBS/DMSO (control) for 1 hour at 37° C. The plates were washed twice with PBS before three randomly selected Field of Views (FOVs) were recorded by fluorescence microscope and number of adhesion cells were quantified by Image J.\nMDAMB-231 or PANC-1 cells were seeded into 6-well plate (2×10^5 cells) and cultured at 37° C. for 24 hour. Galectin-3 CRISPR Cas9 Knockout plasmid (2 μg) and galectin-3 HDR plasmid (2 μg) was mixed with Plasmid Transfection Medium (21 μl) for 5 minutes before addition to a mixture of lipofectamine STEM Transfection Reagent (STEM00001) (1 μl) and Plasmid Transfection Medium (25 μl) for 10 minutes at room temperature. The cells in the 6-well plates were washed and introduced with the Plasmid DNA/Lipofectamine STEM Transfection Reagent complex at 37° C. for 24 hour. The culture medium was replaced with fresh antibiotics-free medium for further 24 hour before introduction of 10 μg/mL puromycin-containing medium every three days. Successful co-transfection of the CRISPR/Cas9 KO Plasmid and HDR Plasmid was confirmed by expression of red fluorescence protein of the cells. Galectin-3 knockout in the cells was further confirmed by immunoblotting.", "note": "Where a name gives a salt, the structure may show the parent alone."}
{"compound": "NC1CCN(c2nc3c(cc2F)c(=O)c(C(=O)O)cn3-c2ccc(F)cc2F)C1", "note": "(stereo not shown) [Formula X, Tosufloxacin tosylate]", "values": [{"measurement": "IC50", "result": "~10", "unit": "µM"}]}
